# Assay results published in article PMC11167021, “Discovery of a new class of cell-penetrating peptides by novel phage display platform” (Scientific Reports, 2024).
# Assays:
# HEK cells = test: Internalization of peptides on phage by confocal microscopy; format: cell-based; settings: peptide displayed on phage, compared with ORD 5 phage pools
# Text: Confocal microscopy was used to investigate the internalization and cytoplasmic localization of the selected peptides on phage. First, we used the phage pool. […] Some of these peptides had been identified from the selection against all three cell lines and some were cell-type selective. […] Representative images showing different internalization levels of NNJA peptides on phage were shown in Supplementary Fig. S6. Confirmation of internalization for select peptides was obtained using the same approach in Caco2 cells (Supplementary Figs. S7, S8).
# Cells were fixed with 4% paraformaldehyde (PFA) on ice for 20 min after the washing steps. Fixed cells were washed with PBS for three times to remove any excess PFA, and followed by 1 h blocking in 3% bovine serum albumin (BSA) in Tris buffer saline (TBS) with 0.2% triton X-100, and antibodies staining in TBS with 0.2% triton X-100. Primary antibodies were incubated with cell samples overnight at 4 °C. Following PBS washes, species-specific Alexa Fluor 488, Alexa Fluor 568, and/or Alexa Fluor 647-coupled secondary antibodies were used for signal detection. Imaging data collection was conducted on an LSM800 (Zeiss) confocal microscope, using a 40× (NA 1.1 W LD C-Apochromat, Zeiss) objective. Controls treated with secondary antibody were shown negative or undetectable signal.
# HEK-239 cells = test: Double-displayed phage carrying streptavidin-HRP, cellular uptake detected with TMB; format: cell-based; settings: peptide displayed on phage PIII, streptavidin-HRP on pIX; n = 2
# Method: (§1) We further evaluated the ability of NNJA peptides on phage to deliver functional groups into HEK-239 and CaCo2 cells by displaying an Avi-tag peptide on the minor coat protein pIX. Post biotinylation of Avi-tag by BirA, streptavidin-HRP was added to phage, forming a phage-protein complex (Avi[bio]/CPP-SA-HRP).
# (§2) A randomly picked peptide ([…]) from the naïve library was incorporated in the setting and served as one of the negative controls. The method was described previously. Cell viability was evaluated in a replicated experimental group under the same assay condition using CellTiter-Glo luminescent cell viability assay from Promega.
# Caco2 cells = settings: peptide displayed on phage PIII, streptavidin-HRP on pIX; n = 2
# Method: as §1, §2
Sequence,"phage internalization in HEK cells, M13 antibody signal (HEK cells)","cellular uptake of phage-protein complex (Avi[bio]/CPP-SA-HRP), TMB signal, HEK-239 cells (HEK-239 cells)","cellular uptake of phage-protein complex (Avi[bio]/CPP-SA-HRP), TMB signal, CaCo2 cells (Caco2 cells)"
"GRKKRRQRRRPQ [Tat48–60, classic CPP]",lower signal intensity,–,–
TVSRELTPL (phage displayed) [random peptide],–,minimum signal,minimum signal
